The target of this assay is T1, Jack bean urease (Canavalia ensiformis, UniProt P07374).
T1 construct: purchased Fluka Co, Switzerland
As to the kind of experiment: biochemical. Conditions: for inhibition at 50 µg/mL: read-out: Percent of inhibition (50 μg/ml). The procedure:
For urease inhibition assays after addition of phosphate buffer pH = 6.8, sonication was performed for 3 min, followed by centrifugation and evaluating absorbance of upper solution in λ = 278 nm which is attributed to the urease. By using following equation […], where c is the concentration of solution (mol/L), b the Length of the UV cell, we can calculate the concentration of initially urease solution in this way. After appropriate dilution, the concentration of enzyme solution adjusted 2 mg/ml.
The assay mixture, containing 50 μl (2 mg/ml) of Jack-bean urease and 100 μl of different concentration of test compounds, which were dissolved in ethanol 20% previously, was added to 850 μl of 25mM urea and pre-incubated for 0.5 h in water bath at 37°C. The urease reaction was stopped after 30 min incubation by following procedure.
Urease activity was determined by measuring ammonia production using the indophenol method as described by Weatherburn. After pre-incubation, 500 μl of phenol reagent (1% w/v phenol and 0.005% w/v sodium nitroprusside) and 500 μl of alkali reagent (1% w/v NaOH and 0.075% active chloride NaOCl) were added to 100 μl of incubation mixture and kept at 37°C for 30 min.
The absorbance was measured at 625 nm. […] Percentage inhibitions were calculated using the formula (100 – (OD sample / OD control) × 100).
The concentration that provokes an inhibition halfway between the minimum and maximum response of each compound (relative IC50) was determined by monitoring the inhibition effect of various concentrations of compounds in the assay. The IC50 values were then calculated using GraphPad Prism 5 software.

The values below come from PMC3575251, “Urease inhibitory activities of β-boswellic acid derivatives” (DARU Journal of Pharmaceutical Sciences, 2013).

Structures are written as SMILES.

T1 sequence (P07374 whole entry, looked up): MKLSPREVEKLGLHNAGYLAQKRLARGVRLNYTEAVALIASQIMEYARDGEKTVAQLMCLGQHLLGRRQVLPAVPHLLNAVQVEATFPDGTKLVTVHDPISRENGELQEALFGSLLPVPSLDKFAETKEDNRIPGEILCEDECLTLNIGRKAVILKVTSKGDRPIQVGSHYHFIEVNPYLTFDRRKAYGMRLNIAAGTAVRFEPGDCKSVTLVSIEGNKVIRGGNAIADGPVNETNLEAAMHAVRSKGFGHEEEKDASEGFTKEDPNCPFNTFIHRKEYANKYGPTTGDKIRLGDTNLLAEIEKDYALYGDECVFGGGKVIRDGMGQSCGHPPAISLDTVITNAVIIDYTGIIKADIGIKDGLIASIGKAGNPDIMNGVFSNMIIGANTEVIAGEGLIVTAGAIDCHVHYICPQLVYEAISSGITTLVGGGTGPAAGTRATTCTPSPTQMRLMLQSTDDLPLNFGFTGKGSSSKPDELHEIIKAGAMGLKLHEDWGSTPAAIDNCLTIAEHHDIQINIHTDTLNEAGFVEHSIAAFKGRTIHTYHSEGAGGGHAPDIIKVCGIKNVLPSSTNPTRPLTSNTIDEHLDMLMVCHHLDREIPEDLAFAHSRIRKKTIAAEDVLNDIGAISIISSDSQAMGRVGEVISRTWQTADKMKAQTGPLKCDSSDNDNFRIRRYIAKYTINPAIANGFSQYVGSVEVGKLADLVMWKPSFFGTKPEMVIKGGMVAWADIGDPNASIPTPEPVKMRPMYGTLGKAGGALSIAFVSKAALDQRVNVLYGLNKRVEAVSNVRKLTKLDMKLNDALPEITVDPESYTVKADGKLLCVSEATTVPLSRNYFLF

As to `NC(N)=S` [Thiourea, thiourea, reference compound], where the note is “50 μg/ml test compound, Jack bean urease, 25 mM urea, 37°C”, the “Percent of inhibition (50 μg/ml)” value is 88.0%.

Turning to `CC(=O)OC1CCC2(C)C(CCC3(C)C2C(O)C=C2C4C(C)C(C)CCC4(C)CCC23C)C1(C)C(=O)O` (stereo not drawn) [compound 2, 3-O-acetyl-11-hydroxy-β-boswellic acid], the half-inhibitory concentration (IC50) (as a rule, the concentration needed to halve the response being measured) turned out to be 9.21 ± 0.069 µM and the inhibition at 50 µg/mL was determined as 56.2%.

Turning to `CC(=O)O[C@@H]1CC[C@@]2(C)[C@@H](CC[C@]3(C)[C@@H]2C(=O)C=C2[C@@H]4[C@@H](C)[C@H](C)CC[C@]4(C)CC[C@]23C)[C@@]1(C)C(=O)O` [compound 3, 3-O-acetyl-11-keto-β-boswellic acid], the concentration for half-maximal inhibition (IC50) was determined as 16.34 ± 0.063 µM and the inhibition at 50 µg/mL was found to be 37.4%.

For `C[C@H]1[C@H](C)CC[C@]2(C)CC[C@]3(C)C(=CC(=O)[C@@H]4[C@@]5(C)CC[C@@H](O)[C@](C)(C(=O)O)[C@@H]5CC[C@]43C)[C@H]12` [compound 4, 11-keto-β-boswellic acid], the IC50 is 85.23 ± 0.065 µM and the inhibition at 50 µg/mL is 39.1%.
